Data set [1] deals with Methicillin‐resistant coagulase negative Staphylococci P1369. As to the kind of experiment: Inhibition-zone assay (lethal concentration). The data set is classed as cell-based, Staphylococcus. To be noted: Broth Medium, 37°C. The text has this: Bacterial media used here included: Luria‐Bertani (LB) medium, THY medium (30 g Todd Hewitt broth and 5 g Yeast extract per liter), and tryptic soy broth (TSB) (Oxoid, Basingstoke, UK); Broth medium and brain–heart infusion (BHI) medium (Beijing Landbridge technology Limited by Share Ltd., Beijing, China); Potato dextrose (PD) medium (self‐prepared).
In brief, an overnight bacterial culture from a single colony was inoculated into fresh medium and grew to late log‐phase. A 10‐μl aliquot of each culture was diluted in 6‐ml pre‐heated medium containing 0.8% agar. The mixture was spread on a 9‐cm Petri dish, giving a depth of 1 mm. After settling, 3‐mm wells were punched in the plate and then 2‐μl peptide samples of different concentrations were added to each well. The agar plates were incubated overnight at indicated temperatures (Table EV4). A lethal concentration (C L ) was calculated from a plot of d^2 against log n, where d is the diameter (in cm) and n is the amount of sample applied in the well (in nmol). The plot is linear, and thus C L can be calculated from the slope (k) and the intercept (m) of this plot.

In data set [2] the test system is BM cells (Bacillus megaterium). The experiment in a line: Scanning electron microscope observation of cell deformation. Type of data set: cell-based. The following applies: 10 × C L, 37°C, 90 min. The procedure: After centrifugation, bacterial pellets were fixed with 2.5% glutaraldehyde for 1 h, followed by washing three times with PBS buffer (pH 7.3). Dehydration was carried out with a series of graded ethanol solutions. Cells were then dried by BAL‐TEC CPD‐030 critical point dryer (Bal‐Tec AG, Balzers, Liechtenstein) before being mounted on carbon tape and sputtered with a gold coating (BAL‐TEC SCD005). Images were visualized in FEI QUANTA 450.

Data set [3] in a line: Circular dichroism spectroscopy with UMP. The data set is classed as binding. The following applies: 50 mM NH4OAc, room temperature. The procedure:
The spectra were measured at room temperature from 300 to 200 nm by using a quartz cell of 1.0 mm thickness. Data were collected at 1‐nm intervals with a scan rate of 2 nm/s.

Data set [4] is described as follows: Bioaffinity ESI-MS with UMP. The data set is classed as binding, Staphylococcus aureus. To be noted: 25 mM ammonium acetate (pH5.2). The procedure:
All components for interactions were dissolved in 25 mM ammonium acetate (pH5.2). Electrospray spectra were recorded with Waters SynaptG2‐Si mass spectrometer (Waters, Manchester, UK) and measurements were performed with positive ESI in resolution mode. Ions were scanned in a mass range of 500–2,000 m/z with the following conditions: the capillary voltage at 1,500 V; the cone voltage at 40 V; the source block temperature at 30°C. Spectra were recorded and processed by the software Masslynx4.1 (Waters, Manchester, UK).

Data set [5] can be described thus: SPR binding of UMP to immobilized AMSIN (Biacore T100). The following applies: read-out: Binding affinity of AMSIN to UMP (K D); AMSIN immobilized on CM5, UMP 100–3.125 μM in PBS-T pH 7.5, 25°C; 1:1 Langmuir model. The procedure:
Surface plasmon resonance (SPR) analysis was performed on a Biacore T100 instrument with a CM‐5 sensor chip (GE Healthcare Life Sciences, USA) at 25°C. An amide coupling chemistry strategy was used to immobilize AMSIN on the chip surface. […] Non‐reacted carboxylic groups on the sensor chip surface were blocked by ethanolamine‐HCl (1 M, pH 8.5) for 420 s at a flow rate of 10 μl/min. The final immobilization level was 1,778 RUs. For detecting binding, the analyte UMP was serially diluted twofold with the running buffer PBS‐T (PBS buffer containing 0.05% Tween 20, pH 7.5) at final concentrations of 100–3.125 μM. Then, they were used to flow over the chip surface at a flow rate of 30 μl/min for 60 s. Dissociation was monitored for 120 s by injecting the running buffer suddenly after samples at a flow rate of 30 μl/min for complete removal of specifically and non‐specifically bound biological material from the surface. Responses were measured in RUs as the difference between active and reference channels. The binding curve was fitted with the software BIAevaluation v2.0.1 using 1:1 Langmuir binding model.
(In general: SPR reads the build-up and loss of mass on a sensor chip optically.)

Data set [6] in a line: Stability in H2O (residual activity by inhibition-zone assay). Type of data set: physicochemical. The following applies: 48‐h incubation in H2O at 37°C.
For data set [7], the system named is A549 cells. The experiment in a line: Peptide-induced IL-8 release (ELISA). The data set is classed as cell-based, human. To be noted: 24 h. The procedure:
A549 and HL‐60 cells were purchased from the Cell Resource Center of the Chinese Academy of Medical Sciences (Beijing, China). They were tested for mycoplasma contamination with the Mycoplasma Detection Kit (Solarbio, China) and only negative cultures were used in our experiments. The cells were cultured in complete Dulbecco’s Modified Eagle Medium (DMEM) supplemented with 10% fetal bovine serum (FBS), penicillin (100 units/ml), and streptomycin ([…]) at 37°C in 5% CO2. The culture medium was changed every 2 days. Cells were passaged every 4–5 days with 0.25% trypsin (Gibco, USA). For enzyme‐linked immunosorbent assay (ELISA) (Hara et al, [2008]), A549 or HL‐60 cells were seeded in six‐well plates at a density of 1 × 10^5 cells/well and were incubated at 37°C in 5% CO2 overnight. Medium was aspirated and replaced with fresh complete DMEM supplemented with 10% FBS or serum‐free medium, both containing different concentrations of polypeptides for 24 h. Then, the supernatants were harvested for quantification of the IL‐8 amount in A549 by the Human CXCL8/IL‐8 Quantikine ELISA Kit (R&D Systems Inc., Minneapolis, MN, USA) and the MCP‐1 amount in HL‐60 by the Human MCP‐1 ELISA Kit (Boster Biological Technology Co., Ltd, Wuhan, China) as per the manufactures’ instructions.
On the technique in general: An ELISA detects its analyte on a solid surface through an enzyme-linked reagent.

SMILES strings stand for the structures. pKd: −log10 of the molar value. Where a SMILES comes first, the peptide text is derived from it. Bridges are numbered along the chain shown (N, C = ends).

Turning to `CC[C@H](C)[C@@H]1NC(=O)[C@H](CCCCN)NC(=O)CNC(=O)[C@H](CCCNC(=N)N)NC(=O)[C@@H]2CSSC[C@H](NC(=O)CNC(=O)[C@H](Cc3ccccc3)NC(=O)CN)C(=O)N3CCC[C@H]3C(=O)N[C@@H](Cc3c[nH]c4ccccc34)C(=O)N[C@@H](CC(N)=O)C(=O)N[C@@H](C)C(=O)N[C@@H](Cc3ccc(O)cc3)C(=O)N[C@@H](CCC(=O)O)C(=O)N[C@H]3CSSC[C@H](NC(=O)[C@H]([C@@H](C)O)NC(=O)[C@H](CCC(N)=O)NC(=O)[C@H](CCCNC(=N)N)NC1=O)C(=O)N[C@@H](Cc1c[nH]cn1)C(=O)N[C@H](C(=O)N[C@@H](Cc1ccc(O)cc1)C(=O)O)CSSC[C@H](NC(=O)[C@H](Cc1c[nH]cn1)NC(=O)[C@H](CCCNC(=N)N)NC(=O)[C@H](CC(=O)O)NC3=O)C(=O)N[C@@H](C(C)C)C(=O)N[C@@H](CO)C(=O)N[C@@H](CCCCN)C(=O)NCC(=O)N[C@@H](Cc1ccc(O)cc1)C(=O)N[C@@H]([C@@H](C)O)C(=O)NCC(=O)NCC(=O)N[C@@H](CC(N)=O)C(=O)N2` [AMSIN] (H-GFGCPWNAYECDRHCVSKGYTGGNCRGKIRQTCHCY-OH; disulfide 4-25, 11-33, 15-35; N-terminus and C-terminus assumed), the “Lethal concentration (C L)” value in data set [1] is listed as 1.07 µM. Moreover, in data set [2], the “Cell shape by scanning electron microscopy” value was “deformation of the cell shape”. For the same molecule, the “Complex with UMP by CD absorption signatures” value in data set [3] is “a complex was formed”. Moreover, the “Non-covalent complex with UMP by ESI-MS” value in data set [4] was “quadruply protonated complex”. Also, the pKd in data set [5] is 4.62. In data set [6], the “Residual antibacterial activity” value is on record as “full antibacterial activity”. The “IL-8” value is on record as 93 pg/mL in data set [7] (FBS-containing medium, 25 μg/mL, replicate 1); 101 pg/mL in data set [7] (FBS-containing medium, 25 μg/mL, replicate 2); 99 pg/mL in data set [7] (FBS-containing medium, 25 μg/mL, replicate 3); 116 pg/mL in data set [7] (FBS-containing medium, 50 μg/mL, replicate 1); 121 pg/mL in data set [7] (FBS-containing medium, 50 μg/mL, replicate 2); 122 pg/mL in data set [7] (FBS-containing medium, 50 μg/mL, replicate 3). Also, the “IL-8” value in data set [7] (FBS-containing medium, 100 μg/mL, replicate 1) came out at 111 pg/mL; in data set [7] (FBS-containing medium, 100 μg/mL, replicate 2), 103 pg/mL; in data set [7] (FBS-containing medium, 100 μg/mL, replicate 3), 106 pg/mL; in data set [7] (Serum-Free medium, 25 μg/mL, replicate 1), 51 pg/mL; in data set [7] (Serum-Free medium, 25 μg/mL, replicate 2), 40 pg/mL; in data set [7] (Serum-Free medium, 25 μg/mL, replicate 3) it was 42 pg/mL. The “IL-8” value amounted to 40 pg/mL in data set [7] (Serum-Free medium, 50 μg/mL, replicate 1); 48 pg/mL in data set [7] (Serum-Free medium, 50 μg/mL, replicate 2); 42 pg/mL in data set [7] (Serum-Free medium, 50 μg/mL, replicate 3); 67 pg/mL in data set [7] (Serum-Free medium, 100 μg/mL, replicate 1); 78 pg/mL in data set [7] (Serum-Free medium, 100 μg/mL, replicate 2); 67 pg/mL in data set [7] (Serum-Free medium, 100 μg/mL, replicate 3).

Source of the values: article PMC8819291, “Adaptively evolved human oral actinomyces‐sourced defensins show therapeutic potential” (EMBO Molecular Medicine, 2021).
